# Laboratory results taken from patent US12091426B2, “Bifunctional degraders of hematopoietic progenitor kinase and therapeutic uses thereof” (Nurix Therapeutics, Inc., priority 2021, dated 2024).
# Biological target: T1, HPK1 (Homo sapiens, UniProt Q92918)
# T1 construct: A HiBiT tag was introduced by CRISPR on the N terminus of HPK1 in Jurkat cells; host or cells: Jurkat cells (ATCC TIB-152), monoclonal line with CRISPR knock-in of HiBiT at the endogenous HPK1 locus
# Experiment: HPK1 Cellular HiBit Degradation Assay
# Format: cell-based
# Conditions: HiBiT HPK1 Jurkat cells, 24 hrs; for DC50: concentration at which 50% of HPK1 was remaining, read-out: DC50 Category; for Dmax: Jurkat, maximum degradation vs DMSO vehicle control, read-out: Dmax Category
# Procedure, shortened: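 HPK1 levels are read by HiBiT luminescence after 24 h exposure of HiBiT-knock-in Jurkat cells to compound at 10 uM–0.1 nM final (11 points). Relative to DMSO (100%), DC50 is the concentration leaving 50% HPK1 from a variable-slope fit, and Dmax is 100 minus minimum remaining. Viability checked in-plate.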
# T1 sequence (Q92918 whole entry): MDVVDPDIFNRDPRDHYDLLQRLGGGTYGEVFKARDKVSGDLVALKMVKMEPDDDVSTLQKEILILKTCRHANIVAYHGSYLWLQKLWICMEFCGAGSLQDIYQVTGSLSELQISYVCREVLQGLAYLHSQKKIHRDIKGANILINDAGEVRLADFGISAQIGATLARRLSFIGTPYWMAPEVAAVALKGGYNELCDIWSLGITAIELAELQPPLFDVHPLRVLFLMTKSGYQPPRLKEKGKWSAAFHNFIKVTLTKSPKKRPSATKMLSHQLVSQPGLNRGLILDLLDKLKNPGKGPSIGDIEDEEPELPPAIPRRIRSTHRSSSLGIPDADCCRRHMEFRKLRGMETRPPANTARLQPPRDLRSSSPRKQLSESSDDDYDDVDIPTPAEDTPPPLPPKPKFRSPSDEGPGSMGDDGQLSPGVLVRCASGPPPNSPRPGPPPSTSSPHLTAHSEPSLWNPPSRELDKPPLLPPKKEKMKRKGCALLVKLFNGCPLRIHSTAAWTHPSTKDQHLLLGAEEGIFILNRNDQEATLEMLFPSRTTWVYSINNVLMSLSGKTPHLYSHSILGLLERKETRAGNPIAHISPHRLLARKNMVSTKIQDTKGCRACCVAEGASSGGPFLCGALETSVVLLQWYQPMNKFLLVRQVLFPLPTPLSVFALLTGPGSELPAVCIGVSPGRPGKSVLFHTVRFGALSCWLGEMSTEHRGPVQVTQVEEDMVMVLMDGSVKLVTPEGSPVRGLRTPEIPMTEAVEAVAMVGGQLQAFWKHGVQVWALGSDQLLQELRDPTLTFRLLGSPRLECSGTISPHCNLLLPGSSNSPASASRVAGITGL
DC50 [µM],Dmax [%],SMILES
< 0.1,> 85,"CC(C)n1cnc2cc(-c3ccc4c(c3)N([C@H]3C[C@@H](N5CCCCC5)C3)C(=O)C43CCN(C(=O)[C@@H]4CCN(C(=O)[C@H]5CC[C@H](N(C)c6ccc(C7CCC(=O)NC7=O)cn6)CC5)C4)CC3)nc(NC3CC3)c21 (mixture of isomers) [Example 126, (3RS)-3-(6-{methyl[(1R,4R)-4-[(3R)-3-({6-[4-(cyclopropylamino)-3-(propan-2-yl)-3H-imidazo[4,5-c]pyridin-6-yl]-2-oxo-1-[(1S,3S)-3-(piperidin-1-yl)cyclobutyl]-1,2-dihydrospiro[indole-3,4′-piperidin]-1′-yl}carbonyl)pyrrolidine-1-carbonyl]cyclohexyl]amino}pyridin-3-yl)piperidine-2,6-dione]"
< 0.1,> 85,"CC(C)n1cnc2cc(-c3ccc4c(c3)N([C@H]3C[C@@H](N5CCCCC5)C3)C(=O)C43CCN(C(=O)[C@@H]4CCN(C(=O)[C@H]5CC[C@H](N(C)c6ccc(C7CCC(=O)NC7=O)cn6)CC5)C4)CC3)nc(Nc3ccccc3F)c21 (mixture of isomers) [Example 127, (3RS)-3-(6-{METHYL [(1R,4R)-4-[(3R)-3-[(6-{4-[(2-fluorophenyl)amino]-3-(propan-2-yl)-3H-imidazo[4,5-c]pyridin-6-yl}-2-oxo-1-[(1S,3S)-3-(piperidin-1-yl)cyclobutyl]-1,2-dihydrospiro[indole-3,4′-piperidin]-1′-yl)carbonyl]pyrrolidine-1-carbonyl]cyclohexyl]amino}pyridin-3-yl)piperidine-2,6-dione]"
< 0.1,> 85,"CC(C)n1cnc2cc(-c3ccc4c(c3)N([C@H]3C[C@@H](N5CCCCC5)C3)C(=O)C43CCN(C(=O)[C@@H]4CCN(C(=O)[C@H]5CC[C@H](N(C)c6ccc(C7CCC(=O)NC7=O)cn6)CC5)C4)CC3)nc(Nc3ccncc3F)c21 (mixture of isomers) [Example 128, (3RS)-3-(6-{methyl[(1R,4R)-4-[(3R)-3-[(6-{4-[(3-Fluoropyridin-4-yl)amino]-3-(propan-2-yl)-3H-imidazo[4,5-c]pyridin-6-yl}-2-oxo-1-[(1S,3S)-3-(piperidin-1-yl)cyclobutyl]-1,2-dihydrospiro[indole-3,4′-piperidin]-1′-yl)carbonyl]pyrrolidine-1-carbonyl]cyclohexyl]amino}pyridin-3-yl)piperidine-2,6-dione]"
0.1 to 0.5,70 to 85,"CC(C)n1cnc2cc(-c3ccc4c(c3)N([C@H]3C[C@@H](N5CCCCC5)C3)C(=O)C43CCN(C(=O)[C@@H]4CCN(C(=O)[C@H]5CC[C@H](N(C)c6cccc7c6C(=O)N(C6CCC(=O)NC6=O)C7=O)CC5)C4)CC3)nc(NC3CC3)c21 (mixture of isomers) [Example 129, 2-[(3RS)-2,6-dioxopiperidin-3-yl]-4-{methyl[(1R,4R)-4-[(3R)-3-({6-[4-(cyclopropylamino)-3-(propan-2-yl)-3H-imidazo[4,5-c]pyridin-6-yl]-2-oxo-1-[(1S,3S)-3-(piperidin-1-yl)cyclobutyl]-1,2-dihydrospiro[indole-3,4′-piperidin]-1′-yl}carbonyl)pyrrolidine-1-carbonyl]cyclohexyl]amino}-2,3-dihydro-1H-isoindole-1,3-dione]"
< 0.1,50 to 70,"CC(C)n1cnc2cc(-c3ccc4c(c3)N([C@H]3C[C@@H](N5CCCCC5)C3)C(=O)C43CCN(C(=O)C4CCN(C(=O)[C@H]5CC[C@H](N(C)c6ccc(C7CCC(=O)NC7=O)cn6)CC5)CC4)CC3)nc(NC3CC3)c21 (mixture of isomers) [Example 130, (3RS)-3-(6-{methyl[(1R,4R)-4-[4-({6-[4-(cyclopropylamino)-3-(propan-2-yl)-3H-imidazo[4,5-c]pyridin-6-yl]-2-oxo-1-[(1S,3S)-3-(piperidin-1-yl)cyclobutyl]-1,2-dihydrospiro[indole-3,4′-piperidin]-1′-yl}carbonyl)piperidine-1-carbonyl]cyclohexyl]amino}pyridin-3-yl)piperidine-2,6-dione]"
< 0.1,70 to 85,"CC(C)n1cnc2cc(-c3ccc4c(c3)N([C@H]3C[C@@H](N5CCCCC5)C3)C(=O)C43CCN(C(=O)C4CCN(C(=O)[C@H]5CC[C@H](N(C)c6ccc(C7CCC(=O)NC7=O)cn6)CC5)CC4)CC3)nc(Nc3ccccc3F)c21 (mixture of isomers) [Example 131, (3RS)-3-(6-{methyl[(1R,4R)-4-{4-[(6-{4-[(2-fluorophenyl)amino]-3-(propan-2-yl)-3H-imidazo[4,5-c]pyridin-6-yl}-2-oxo-1-[(1S,3S)-3-(piperidin-1-yl)cyclobutyl]-1,2-dihydrospiro[indole-3,4′-piperidin]-1′-yl)carbonyl]piperidine-1-carbonyl}cyclohexyl]amino}pyridin-3-yl)piperidine-2,6-dione]"
< 0.1,50 to 70,"CC(C)n1cnc2cc(-c3ccc4c(c3)N([C@H]3C[C@@H](N5CCCCC5)C3)C(=O)C43CCN(C(=O)C4CCN(C(=O)[C@H]5CC[C@H](N(C)c6ccc(C7CCC(=O)NC7=O)cn6)CC5)CC4)CC3)nc(Nc3ccncc3F)c21 (mixture of isomers) [Example 132, (3RS)-3-(6-{methyl[(1R,4R)-4-{4-[(6-{4-[(3-Fluoropyridin-4-yl)amino]-3-(propan-2-yl)-3H-imidazo[4,5-c]pyridin-6-yl}-2-oxo-1-[(1S,3S)-3-(piperidin-1-yl)cyclobutyl]-1,2-dihydrospiro[indole-3,4′-piperidin]-1′-yl)carbonyl]piperidine-1-carbonyl}cyclohexyl]amino}pyridin-3-yl)piperidine-2,6-dione]"
0.5 to 1,50 to 70,"CC(C)n1cnc2cc(-c3ccc4c(c3)N([C@H]3C[C@@H](N5CCCCC5)C3)C(=O)C43CCN(C(=O)C4CCN(C(=O)[C@H]5CC[C@H](N(C)c6cccc7c6C(=O)N(C6CCC(=O)NC6=O)C7=O)CC5)CC4)CC3)nc(NC3CC3)c21 (mixture of isomers) [Example 133, 2-[(3RS)-2,6-dioxopiperidin-3-yl]-4-{methyl[(1R,4R)-4-[4-({6-[4-(cyclopropylamino)-3-(propan-2-yl)-3H-imidazo[4,5-c]pyridin-6-yl]-2-oxo-1-[(1S,3S)-3-(piperidin-1-yl)cyclobutyl]-1,2-dihydrospiro[indole-3,4′-piperidin]-1′-yl}carbonyl)piperidine-1-carbonyl]cyclohexyl]amino}-2,3-dihydro-1H-isoindole-1,3-dione]"
0.1 to 0.5,50 to 70,"CC(C)n1cnc2cc(-c3ccc4c(c3)N([C@H]3C[C@@H](N5CCCCC5)C3)C(=O)C43CCN(C(=O)[C@H]4CC[C@H](C(=O)N5CCC(N(C)c6ccc(C7CCC(=O)NC7=O)cc6)CC5)CC4)CC3)nc(NC3CC3)c21 (mixture of isomers) [Example 134, (3RS)-3-{4-[methyl({1-[(1R,4R)-4-({6-[4-(cyclopropylamino)-3-(propan-2-yl)-3H-imidazo[4,5-c]pyridin-6-yl]-2-oxo-1-[(1S,3S)-3-(piperidin-1-yl)cyclobutyl]-1,2-dihydrospiro[indole-3,4′-piperidin]-1′-yl}carbonyl)cyclohexanecarbonyl]piperidin-4-yl})amino]phenyl}piperidine-2,6-dione]"
< 0.1,70 to 85,"CC(C)n1cnc2cc(-c3ccc4c(c3)N([C@H]3C[C@@H](N5CCCCC5)C3)C(=O)C43CCN(C(=O)[C@H]4CC[C@H](C(=O)N5CCC(N(C)c6ccc(C7CCC(=O)NC7=O)cc6)CC5)CC4)CC3)nc(Nc3ccccc3F)c21 (mixture of isomers) [Example 135, (3RS)-3-{4-[methyl({1-[(1R,4R)-4-[(6-{4-[(2-fluorophenyl)amino]-3-(propan-2-yl)-3H-imidazo[4,5-c]pyridin-6-yl}-2-oxo-1-[(1S,3S)-3-(piperidin-1-yl)cyclobutyl]-1,2-dihydrospiro[indole-3,4′-piperidin]-1′-yl)carbonyl]cyclohexanecarbonyl]piperidin-4-yl})amino]phenyl}piperidine-2,6-dione]"
< 0.1,70 to 85,"CC(C)n1cnc2cc(-c3ccc4c(c3)N([C@H]3C[C@@H](N5CCCCC5)C3)C(=O)C43CCN(C(=O)[C@H]4CC[C@H](C(=O)N5CCC(N(C)c6ccc(C7CCC(=O)NC7=O)cc6)CC5)CC4)CC3)nc(Nc3ccncc3F)c21 (mixture of isomers) [Example 136, (3RS)-3-{4-[methyl({1-[(1R,4R)-4-[(6-{4-[(3-fluoropyridin-4-yl)amino]-3-(propan-2-yl)-3H-imidazo[4,5-c]pyridin-6-yl}-2-oxo-1-[(1S,3S)-3-(piperidin-1-yl)cyclobutyl]-1,2-dihydrospiro[indole-3,4′-piperidin]-11′-yl)carbonyl]cyclohexanecarbonyl]piperidin-4-yl})amino]phenyl}piperidine-2,6-dione]"
< 0.1,70 to 85,"CC(C)n1cnc2cc(-c3ccc4c(c3)N([C@H]3C[C@@H](N5CCCCC5)C3)C(=O)C43CCN(C(=O)[C@H]4CC[C@H](C(=O)N5CCC(N(C)c6ccc(C7CCC(=O)NC7=O)cn6)CC5)CC4)CC3)nc(NC3CC3)c21 (mixture of isomers) [Example 137, (3RS)-3-{6-[methyl({1-[(1R,4R)-4-({6-[4-(cyclopropylamino)-3-(propan-2-yl)-3H-imidazo[4,5-c]pyridin-6-yl]-2-oxo-1-[(1S,3S)-3-(piperidin-1-yl)cyclobutyl]-1,2-dihydrospiro[indole-3,4′-piperidin]-1′-yl}carbonyl)cyclohexanecarbonyl]piperidin-4-yl})amino]pyridin-3-yl}piperidine-2,6-dione]"
